Patent publication US5180735A, “Cyclohexanol derivatives, production and use thereof” (Takeda Chemical Industries, Ltd., priority 1989, dated 1993)

What follows are compounds tested on angiogenesis due to bFGF (rat cornea) (assay: Angiogenesis inhibitory action by the rat cornea micropocket method). Conditions: sustained release pellet, 20 μg sample, next to bFGF pellet (250 ng) in cornea; observed after 10 days.
Assay type: in vivo, male Sprague-Dawley rats
Text: Angiogenesis inhibitory action by the rat cornea micropocket method
Essentially the same method of Gimbrone et al. [J. National Cancer Institute 52:413-419 (1974)] was follows.
Specifically, adult male Sprague-Dawley rats (11 to 16 week old) were anesthetized with nembtal and locally anesthetized by instillation of xylocaine eyedrops onto the eyeball. The cornea was incised to a length of about 2 mm at about 2 mm inside from the corneal circumference by means of an injection needle, and a basic fibroblast growth factor (bFGF, bovine brain-derived, purified product, R & D Inc.) and a sustained release pellet containing the test sample were inserted side by side into the incision so that the bFGF pellet was located on the central side in the cornea. In the control group, the bFGF pellet and a sample-free pellet were inserted into the cornea. After 10 days, the cornea was observed under a stereoscopic microscope.
The sustained release pellets were prepared in the following manner. An ethylene-vinyl acetate copolymer (Takeda Chemical Industries, Ltd.) was dissolved in dichloromethane to a concentration of 8%. A 3 μl portion of the solution was air-dried on a glass dish, an aqueous solution of bFGF (250 ng) was then placed thereon and air-dried and, finally 3 μl of the above-mentioned ethylene-vinyl acetate copolymer solution was placed further thereon and air-dried to give a sandwich sheet. This sandwich sheet was made round into a bFGF pellet. The test sample pellets were prepared by dissolving each sample in ethanol to a concentration of 20 μg/2 μl, mixing the solution with 6 μl of an ethylene-vinyl acetate copolymer solution, air-drying the mixed solution on a glass dish and making the thus-obtained sheet round.
In the above Table 1, the number of rats subjected to the test was shown by denominator, and the number of rats whose […] due to bFGF was retarded or weakened by administration of the test sample was shown by numerator. In the judgment, +means an inhibition rate of 70% or more, and ±means that of less than 70% but exceeding 40%.

Row | Compound | Inhibitory Rate (rats whose angiogenesis due to bFGF was retarded or weakened / rats subjected to the test) | Judgment (Angiogenesis Inhibitory Activity)
1 | CO[C@@H]1[C@H](OC(=O)NC(=O)CCl)CC[C@](O)(CCl)[C@H]1[C@@]1(C)O[C@@H]1CC=C(C)C [Example 1c, 4-O-(Chloroacetylcarbamoyl)-2-(1,2-epoxy-1,5-dimethyl-4-hexenyl)-3-methoxy-1-chloromethyl-1,4-cyclohexanediol] | 5/5 | + (an inhibition rate of 70% or more)
2 | CO[C@@H]1[C@H](OC(=O)NC(=O)C(C)CCl)CC[C@](O)(CCl)[C@H]1[C@@]1(C)O[C@@H]1CC=C(C)C (stereo partly drawn) [Example 4, 4-O-(3-Chloro-2-methyl-propionylcarbamoyl)-2-(1,2-epoxy-1,5-dimethyl-4-hexenyl)-3-methoxy-1-chloromethyl-1,4-cyclohexanediol] | 3/5 | ± (that of less than 70% but exceeding 40%)
3 | CO[C@@H]1[C@H](O)CC[C@](O)(CSC)[C@H]1[C@@]1(C)O[C@@H]1CC=C(C)C [Example 10, 2-(1,2-Epoxy-1,5-dimethyl-4-hexenyl)-3-methoxy-1-methylthiomethyl-1,4-cyclohexanediol] | 4/7 | ± (that of less than 70% but exceeding 40%)
4 | CO[C@@H]1[C@H](O)CC[C@](O)(C[N+]2([O-])CCCC2)[C@H]1[C@@]1(C)O[C@@H]1CC=C(C)C [Example 48, 2-(1,2-Epoxy-1,5-dimethyl-4-hexenyl)-3-methoxy-1-(pyrrolidin-1-yl)methyl-1,4-cyclohexanediol N-oxide] | 4/7 | ± (that of less than 70% but exceeding 40%)
5 | CO[C@@H]1[C@H](OC(N)=O)CC[C@](O)(C[S+](C)C)[C@H]1[C@@]1(C)O[C@@H]1CC=C(C)C [Example 70, 4-Carbamoyloxy-2-(1,2-epoxy-1,5-dimethyl-4-hexenyl)-3-methoxy-1-dimethylsulfoniomethyl-cyclohexanol iodide] | 5/6 | + (an inhibition rate of 70% or more)
6 | CO[C@@H]1[C@H](OC(=O)NC(=O)CSc2nc3ccccc3s2)CC[C@](O)(CCl)[C@H]1[C@@]1(C)O[C@@H]1CC=C(C)C [Example 91] | 6/6 | + (an inhibition rate of 70% or more)

These compounds were tested on M5076 cells (assay: Antitumor test in mice inoculated subcutaneously with M5076 cells (tumor size, T/C)). Conditions: 20 mg/kg, subcutaneous, 10 times in total; tumor size after 13 days.
Assay type: in vivo, C57BL/6 mice
Procedure: C57BL/6 mice (a group consisting of 6 mice) were inoculated subcutaneously at the dorsolateral area with 2×10^6 M5076 cells, and then a test compound dissolved in a 5% gum arabic physiological saline solution was subcutaneously administered 10 times in total, i.e. 1st, 2nd, 4th, 5th, 6th, 7th, 8th, 9th, 11th and 12th day after the inoculation. After 13 days, the major axis (a) and the minor axis (b) of the tumor tissue were measured to determine the tumor size by the calculation formula of a×b^2 ×1/2. The ratio of the tumor size thus calculated to the tumor size of animals in the control group was shown by T/C (%).

Row | Compound | T/C (%) (ratio of tumor size to control group)
7 | 4-(N'-chloroacetylureido)-2-(1,2-epoxy-1,5-dimethyl-4-hexenyl)-1-(1,3-dihydrobenzo[c]thiophen-2-ylio)methyl-3-methoxycyclohexanol chloride [Example 100] | 22%
8 | CO[C@@H]1[C@H](OC(=O)NC(=O)CCl)CC[C@](O)(C[S+](C)Cc2cccc(Br)c2)[C@H]1[C@@]1(C)O[C@@H]1CC=C(C)C (single isomer, unassigned) [Example 65A, 1-(3-bromobenzyl)methylsulfoniomethyl-4-(N-chloroacetylcarbamoyloxy)-2-(1,2-epoxy-1,5-dimethyl-4-hexenyl)-3-methoxycyclohexanol bromide] | 9%
9 | CO[C@@H]1[C@H](OC(=O)NC(=O)CCl)CC[C@](O)(C[S+](C)Cc2cccc(Br)c2)[C@H]1[C@@]1(C)O[C@@H]1CC=C(C)C (single isomer, unassigned) [Example 65B, 1-(3-bromobenzyl)methylsulfoniomethyl-4-(N-chloroacetylcarbamoyloxy)-2-(1,2-epoxy-1,5-dimethyl-4-hexenyl)-3-methoxycyclohexanol bromide] | 37%

Same assay, conditions: Mus musculus, M5076, sc, 312 h, 20 mg/kg, subcutaneous, 10 times in total; tumor size after 13 days; read-out: T/C (%) (ratio of tumor size to control group)

Row | Compound | response vs control in vivo at 20 mg/kg
10 | CO[C@@H]1[C@H](OC(=O)NC(=O)CCl)CC[C@](O)(C[S+](C)Cc2ccc(Br)cc2)[C@H]1[C@@]1(C)O[C@@H]1CC=C(C)C (stereo partly drawn) [Example 60, 1-(4-Bromobenzyl)methylsulfoniomethyl-4-(N-chloroacetylcarbamoyloxy)-2-(1,2-epoxy-1,5-dimethyl-4-hexenyl)-3-methoxycyclohexanol bromide] | 21%
11 | CO[C@@H]1[C@H](OC(=O)NC(=O)CCl)CC[C@](O)(C[S+](C)Cc2ccc(Cl)cc2)[C@H]1[C@@]1(C)O[C@@H]1CC=C(C)C (stereo partly drawn) [Example 61, 4-(N-Chloroacetylcarbamoyloxy)-1-(4-chlorobenzyl)methylsulfoniomethyl-2-(1,2-epoxy-1,5-dimethyl-4-hexenyl)-3-methoxycyclohexanol bromide] | 27%
12 | CO[C@@H]1[C@H](OC(=O)NC(=O)CCl)CC[C@](O)(C[S+](C)Cc2ccc(F)cc2)[C@H]1[C@@]1(C)O[C@@H]1CC=C(C)C (stereo partly drawn) [Example 62, 4-(N-Chloroacetylcarbamoyloxy)-2-(1,2-epoxy-1,5-dimethyl-4-hexenyl)-1-(4-fluorobenzyl)methylsulfoniomethyl-3-methoxycyclohexanol bromide] | 29%
13 | CO[C@@H]1[C@H](OC(=O)NC(=O)CCl)CC[C@](O)(C[S+](C)Cc2cccc(Br)c2)[C@H]1[C@@]1(C)O[C@@H]1CC=C(C)C (stereo partly drawn) [Example 64, 1-(3-Bromobenzyl)methylsulfoniomethyl-4-(N-chloroacetylcarbamoyloxy)-2-(1,2-epoxy-1,5-dimethyl-4-hexenyl)-3-methoxycyclohexanol bromide] | 24%
14 | CO[C@@H]1[C@H](OC(=O)NC(=O)CCl)CC[C@](O)(C[S+](C)Cc2ccccc2)[C@H]1[C@@]1(C)O[C@@H]1CC=C(C)C (stereo partly drawn) [Example 76, 1-Benzylmethylsulfoniomethyl-4-chloroacetylcarbamoyloxy-2-(1,2-epoxy-1,5-dimethyl-4-hexenyl)-3-methoxycyclohexanol hydrogen L-tartrate] | 29%
15 | CO[C@@H]1[C@H](OC(=O)NC(=O)CCl)CC[C@](O)(C[S+]2Cc3ccccc3C2)[C@H]1[C@@]1(C)O[C@@H]1CC=C(C)C [Example 82, 4-(N-Chloroacetylcarbamoyloxy)-2-(1,2-epoxy-1,5-dimethyl-4-hexenyl)-1-(1,3-dihydrobenzo[c]thiophen-2-ylio)methyl-3-methoxycyclohexanol chloride] | 9%
16 | CO[C@@H]1[C@H](OC(=O)NC(=O)CCl)CC[C@](O)(C[S+]2CC3CC=CCC3C2)[C@H]1[C@@]1(C)O[C@@H]1CC=C(C)C (stereo partly drawn) [Example 104, 4-(N-chloroacetylcarbamoyloxy)-2-(1,2-epoxy-1,5-dimethyl-4-hexenyl)-1-(1,3,3a,4,7,7ahexahydrobenzo[c]thiophen-2-ylio)methyl-3-methoxycyclohexanol chloride] | 16%

Same assay, conditions: Mus musculus, M5076, sc, 312 h, 30 mg/kg, subcutaneous, 10 times in total; tumor size after 13 days; read-out: T/C (%) (ratio of tumor size to control group)

Row | Compound | response vs control in vivo at 30 mg/kg
17 | CO[C@@H]1[C@H](OC(=O)NC(=O)CCl)CC[C@](O)(CCl)[C@H]1[C@@]1(C)O[C@@H]1CC=C(C)C [Example 1c, 4-O-(Chloroacetylcarbamoyl)-2-(1,2-epoxy-1,5-dimethyl-4-hexenyl)-3-methoxy-1-chloromethyl-1,4-cyclohexanediol] | 20%
18 | C=CC(=O)NC(=O)O[C@@H]1CC[C@](O)(CCl)[C@@H]([C@@]2(C)O[C@@H]2CC=C(C)C)[C@@H]1OC [Example 2, 4-O-(Acryloylcarbamoyl)-2-(1,2-epoxy-1,5-dimethyl-4-hexenyl)-3-methoxy-1-chloromethyl-1,4-cyclohexanediol] | 20%
19 | CO[C@@H]1[C@H](OC(=O)NC(=O)CCl)CC[C@](O)(C[S+](C)C)[C@H]1[C@@]1(C)O[C@@H]1CC=C(C)C [Example 13, 4-O-(Chloroacetylcarbamoyl)-2-(1,2-epoxy-1,5-dimethyl-4-hexenyl)-3-methoxy-1-dimethylsulfoniomethyl-1,4-cyclohexanediol iodide] | 36%
20 | CO[C@@H]1[C@H](OC(=O)NC(=O)CCl)CC[C@](O)(C[S+](C)Cc2ccccc2)[C@H]1[C@@]1(C)O[C@@H]1CC=C(C)C (stereo partly drawn) [Example 16, 4-O-(N-chloroacetylcarbamoyl)-2-(1,2-epoxy-1,5-dimethyl-4-hexenyl)-3-methoxy-1-benzylmethylsulfoniomethyl-1,4-cyclohexanediol bromide] | 20%
21 | C#CC[S+](C)C[C@@]1(O)CC[C@@H](OC(=O)NC(=O)CCl)[C@@H](OC)[C@@H]1[C@@]1(C)O[C@@H]1CC=C(C)C (stereo partly drawn) [Example 17, 4-O-(Chloroacetylcarbamoyl)-2-(1,2-epoxy-1,5-dimethyl-4-hexenyl)-3-methoxy-1-(2-propinyl)-methylsulfoniomethyl-1,4-cyclohexanediol bromide] | 21%
